Test results published in patent publication US20050182129A1, “Hair growth tonic” (priority 2002, published 2005).

How the values were obtained:
Type in all cases: cell-based
GAPDH mRNA = GAPDH mRNA amount (QuantiGene bDNA method), Test Example 4; settings: Human dermal papilla cell; human dermal papilla cells, 24 hours, concentration at which the mRNA amount is halved, average of 2 wells
Method: (§1) Human dermal papilla cells, which were purchased from Toyobo, were cultured in MEM (Invitrogen) containing 12% FBS.
(§2) The dermal papilla cells in passage 5 were sowed in a 96-well plate to give a density of 1×10^4 cells/well and cultured overnight. Then, the medium was replaced by a medium to which no compound was added or a medium containing the compounds and the culture was continued for additional 24 hours. After the completion of the culture, WNT-5A or GAPDH mRNA amount was measured by using QuantiGene High Volume Kit (Bayer Medical) by the branched DNA (bDNA) signal amplification method (Drug Metabolism and Disposition, 28(5), 608-616 (2000)). In accordance with the protocol attached to QuantiGene High Volume Kit, cells were lysed by using Lysis Mixture and the lysis solution was added to capture plate. Next, a set of probes specific to WNT-5A or GPDH was added and allowed to react at 53° C. for 20 hours. After washing the plate by using 0.1×SSC containing 0.03% lauryl sulfate, an amplification probe comprising bDNA was added and allowed to react at 46° C. for 1 hour. After washing the plate, a labeling probe labeled with alkaline phosphatase was added and allowed to react at 46° C. for 1 hour. After washing the plate, a substrate Lumi-Phos Plus was added and allowed to react at 46° C. for 30 minutes. Then, the luminescence was measured by using WALLAC 1420ARVOsx.
As GAPDH-specific probe set, use was made of bDNA probe set for human GAPDH (XenoTech LLC, B0960).
(§3) The amounts of WNT-5A and GAPDH mRNAs are expressed in relative values (%) to the control case of adding of no compound and the concentration of a compound at which the mRNA amount is halved (IC50) is calculated as an index of WNT-5A mRNA decreasing activity of the corresponding compound.

[1] = tested on: Human dermal papilla cells; experiment: Dermal papilla cell growth promoting activity (WST-1, spheroid culture), Test Example 5; settings: for activity at 1 µM / activity at 4 µM / activity at 16 µM: Homo sapiens, Human dermal papilla cell, 72 hours, average of 3 wells, read-out: ΔO.D. 450 nm/620 nm (% of control); for growth promoting activity on dermal papilla cells: at 1 μM; for growth of dermal papilla cells: no concentration stated
Method: as §1
The dermal papilla cells in passage 5 were sowed in a 96-well plate for spheroid culture to give a density of 1.5×10^4 cells/well and cultured overnight. Then, the medium was replaced by a medium to which no compound was added or a medium containing the compound and the culture was continued for additional 72 hours. After the completion of the culture, cells were counted by using a Cell Counting Kit (Wako Pure Chemicals). Five hours before the completion of the culture, WST-1 reagent at 1/10 amount per medium was added to each medium and then the optical density (O.D. 450 nm/620 nm) of the medium was measured at the completion of the culture. A positive correlation was observed between the cell number and optical density within the range of 0.25 to 4×10^4 cells/well.
In this table, each numerical value means an average of 6 wells (control group) or 3 wells (test groups). To compare the control group to the test groups, Student's t-test was employed: • *:P<0.05, **:P<0.01, ***:P<0.001.

WNT-5A mRNA = experiment: Activity of decreasing WNT-5A mRNA amount (QuantiGene bDNA method), Test Example 4; settings: human dermal papilla cells; for IC50: concentration at which the mRNA amount is halved, average of 2 wells
Method: as §1, §2
The WNT-5A-specific probe set was designed based on the sequence of the coding region of human WNT-5A mRNA. As capture extenders (CEs), 10 probes (SEQ ID NOs:12 to 21) were used; as label extenders (LEs), 31 probes (SEQ ID NOs:22 to 52) were employed; and as blockers, […] (SEQ ID NOs:53 to 60) were employed.
as §3

[2] = Homo sapiens, Human dermal papilla cell, 24 h

Structure (SMILES)	IC50 (GAPDH mRNA) [µM]	activity at 1 µM [1] [%]	activity at 4 µM [1] [%]	activity at 16 µM [1] [%]	growth promoting activity on dermal papilla cells [1]	IC50 (WNT-5A mRNA; [2]) [µM]	IC50 (WNT-5A mRNA; 24 hours) [µM]	IC50 (WNT-5A mRNA; Human dermal papilla cell, 24 hours) [µM]	growth of dermal papilla cells [1]	WNT-5A mRNA amount / expression in dermal papilla cells (WNT-5A mRNA)
C[C@@H]1C[C@@H]2O[C@H]2/C=C\C=C\C(=O)Cc2c(Cl)c(O)cc(O)c2C(=O)O1 [Compound 1, Radicicol]	28.2	133 ± 11.6	184 ± 12.1	145 ± 13	significant growth promoting activity	–	–	–	–	–
CC(=O)Oc1cc(OC(C)=O)c2c(c1Cl)CC(=O)/C=C/C=C\[C@@H]1O[C@H]1C[C@@H](C)OC2=O [Compound 2]	26.4	143 ± 10.1	167 ± 8.5	241 ± 25.3	significant growth promoting activity	–	–	–	–	–
C[C@@H]1C[C@@H]2O[C@H]2CCCCC(=O)Cc2c(Cl)c(O)cc(O)c2C(=O)O1 [Compound 4]	> 30	97.4 ± 24.4	148 ± 4.9	180 ± 6.9	–	3.46	–	–	–	–
C[C@@H]1C[C@@H]2O[C@H]2/C=C\C=C\[C@H](O)Cc2c(Cl)c(O)cc(O)c2C(=O)O1 [Compound 5]	> 30	110 ± 45	175 ± 29.2	236 ± 26.4	–	3.47	–	–	–	–
C[C@@H]1C[C@H](OC=O)[C@@H](Cl)/C=C\C=C\C(=O)Cc2c(Cl)c(O)cc(O)c2C(=O)O1 [Compound 18]	6.58	116 ± 9	147 ± 11.3	211 ± 25.9	significant growth promoting activity	< 1	0.63	–	–	–
O=C1c2no[n+]([O-])c2CCC1NO (stereo not shown) [Compound 24]	21.1	108 ± 6.9	104 ± 10.5	120 ± 3.7	–	–	–	4.74	excellent effect of promoting the growth	–
C[C@@H]1C[C@@H]2O[C@H]2/C=C\C=C\C(=NO)Cc2c(Cl)c(O)cc(O)c2C(=O)O1 [Compound 35]	4.29	161 ± 3.5	182 ± 3.7	159 ± 18.3	significant growth promoting activity	–	–	–	–	–
C[C@@H]1CC2OC2C/C=C\C[C@H](O)Cc2c(Cl)c(O)cc(O)c2C(=O)O1 (stereo partly shown) [Compound 38]	> 120	104 ± 2.6	89.6 ± 7.3	125 ± 5.1	–	6.42	–	–	–	–
C[C@@H]1C[C@@H]2O[C@H]2/C=C\C=C\C(=O)Cc2c(Cl)c(OCC(=O)Sc3ccccc3)cc(OCC(=O)Sc3ccccc3)c2C(=O)O1 [Compound 52]	13.5	124.5 ± 1	143 ± 9.5	197 ± 5.4	significant growth promoting activity	–	–	–	promote the growth	effectively inhibit
C[C@@H]1C[C@@H]2O[C@H]2[C@H](Sc2ccccc2)/C=C/CC(=O)Cc2c(Cl)c(O)cc(O)c2C(=O)O1 [Compound 53]	45.5	127 ± 14.3	150 ± 12.8	184 ± 3.6	significant growth promoting activity	–	–	–	promote the growth	effectively inhibit
CC(=O)S[C@@H]1/C=C/CC(=O)Cc2c(Cl)c(O)cc(O)c2C(=O)O[C@H](C)C[C@@H]2O[C@H]21 [Compound 54]	> 30	80 ± 2.4	97.1 ± 5.6	135 ± 0.9	–	2.37	–	–	–	–
CC(=O)S[C@@H]1/C=C\CC(=O)Cc2c(Cl)c(O)cc(O)c2C(=O)O[C@H](C)C[C@@H]2O[C@H]21 [Compound 55]	> 30	89 ± 1.8	127 ± 7.2	176 ± 9.8	–	0.74	–	–	–	–
C[C@@H]1C[C@@H]2O[C@H]2/C=C\C=C\C(=O)Cc2c(Cl)c(OC(=O)c3cccnc3)cc(OC(=O)c3cccnc3)c2C(=O)O1 [Compound 58]	80	123 ± 1.8	150 ± 9.4	217 ± 14.5	significant growth promoting activity	< 1	0.5	–	promote the growth	effectively inhibit
CC1C/C=C/C(O)C/C=C/C(=O)Cc2c(Cl)c(O)cc(O)c2C(=O)O1 (stereo not shown) [Compound 65]	109	92.1 ± 6.7	87.6 ± 8.7	141 ± 5.3	–	8.28	–	–	–	–
CC1C/C=C/C(O)C/C=C/C(=O)Cc2cc(O)cc(O)c2C(=O)O1 (stereo not shown) [Compound 68]	50.6	–	–	–	–	10.7	–	–	–	–
CC1CC2OC2CC(O)CCC(=O)Cc2c(Cl)c(O)cc(O)c2C(=O)O1 (stereo not shown) [Compound 73]	> 120	91.7 ± 5.7	81.2 ± 7.8	206 ± 9.2	–	9.37	–	–	–	–
C[C@@H]1C[C@@H]2O[C@H]2/C=C\C=C\C(=O)Cc2c(Cl)c(OC3OC(CO)C(O)C3O)cc(O)c2C(=O)O1 (stereo partly shown) [Compound 76]	55.9	80 ± 5.6	77.1 ± 7	121 ± 6.3	–	8.56	–	–	–	–
CC1CC2OC2CC2=CC=C(Cc3c(Cl)c(O)cc(O)c3C(=O)O1)O2 (stereo not shown) [Compound 77]	> 120	81.6 ± 4.4	86.3 ± 5	181 ± 21.7	–	8.13	–	–	promote the growth	effectively inhibit
COc1cc(O)c2c(c1)/C=C/CC(O)C(O)C(=O)/C=C\CC(C)OC2=O (stereo not shown) [Compound 79]	38.2	87.5 ± 9.9	98.6 ± 3.6	120 ± 4.1	–	0.9	–	–	excellent effect of promoting the growth	–
